Drawing on US20230271954A1 (Gossamer Bio Services, Inc., priority 2020, published 2023), this text covers IC50 for 21 molecules.

Counter-ions that a name gives are not always drawn.

For one assay, the target named is T1, DGKζ (Homo sapiens, UniProt Q13574).
T1 construct: purchased Carna 12-110
Nature of the assay: DGKζ biochemical assay (ADP-Glo). Conditions: read-out: DGK ζ IC50. The procedure:
(§1) Compounds of the present invention were prepared into 10 mM DMSO solution and 10 nL of stock was transferred into 384 plates (Optiplate 384 plate) using Echo550. DMSO was used as high control, and ATP substrate buffer was used as a low control. A 1× enzyme assay buffer was prepared (Hepes, pH 7.0 25 mM, BSA 0.05%, Triton-X100 0.002%, CaCl2) 1 μM, MgCl2 10 mM, DTT 2 mM). […] OAG (1-oleoyl-2-acetyl-sn-glycerol, 25 mg/ml, Avanti 8001000) and PS (10 mg/ml, Avanti 840032P) were mixed at the ratio of 1:2. A 1× substrate solution was prepared with 1× assay buffer by 100-fold dilution. The substrate solution was sonicated on ice for 1 min. The pure ATP was added to the substrate solution (DGKα:400 μM). 5 μL of the enzyme solution were added to the 384 well plate, and the plate was spun for 1 min at 1000 rpm and incubated for 30 mins at RT. 5 μL of 1× substrate solution were added to the 384 well plate, the plate was spun and then incubated for 45 mins at RT. 10 μL ADP-Glo […] was added to stop the assay. After 60 mins at RT, 20 μL ADP-Glo Detection buffer was added as the final step. Plate was read after 45 min incubation at RT.
(§2) Data analysis was performed by calculating the […] using following the formula:
(§3) [formula] • High control (Hc): DMSO/DGKα(DGKζ)/Substrate/ATP/ADP-Glo • Low Control (Lc): ATP/ADP-Glo

Another assay deals with DGKα (Homo sapiens, UniProt P23743). In words: DGKα biochemical assay (ADP-Glo). Conditions: read-out: DGK α IC50. The procedure: as §1, §2, §3
DGKα, sequence (P23743 whole entry): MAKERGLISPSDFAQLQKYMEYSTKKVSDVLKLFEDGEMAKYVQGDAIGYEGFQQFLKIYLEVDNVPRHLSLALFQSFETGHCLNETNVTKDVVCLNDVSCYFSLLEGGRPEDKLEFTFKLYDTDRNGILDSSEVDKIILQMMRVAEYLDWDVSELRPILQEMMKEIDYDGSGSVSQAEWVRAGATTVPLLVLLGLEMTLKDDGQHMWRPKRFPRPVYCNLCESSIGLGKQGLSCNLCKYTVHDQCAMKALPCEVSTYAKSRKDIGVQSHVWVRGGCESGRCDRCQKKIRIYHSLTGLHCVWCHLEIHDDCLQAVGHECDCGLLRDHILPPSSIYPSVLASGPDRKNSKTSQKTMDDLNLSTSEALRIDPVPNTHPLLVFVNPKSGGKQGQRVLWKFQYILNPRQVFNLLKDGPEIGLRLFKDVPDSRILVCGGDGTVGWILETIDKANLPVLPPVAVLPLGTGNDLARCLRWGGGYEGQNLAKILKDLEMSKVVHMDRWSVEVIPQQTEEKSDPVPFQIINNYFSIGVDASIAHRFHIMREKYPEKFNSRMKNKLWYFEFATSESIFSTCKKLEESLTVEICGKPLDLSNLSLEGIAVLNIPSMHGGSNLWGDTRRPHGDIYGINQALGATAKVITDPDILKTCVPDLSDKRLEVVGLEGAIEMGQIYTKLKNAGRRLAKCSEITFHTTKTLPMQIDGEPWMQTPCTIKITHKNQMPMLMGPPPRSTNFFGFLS

T1 sequence (Q13574 1-929 isoform Q13574-4): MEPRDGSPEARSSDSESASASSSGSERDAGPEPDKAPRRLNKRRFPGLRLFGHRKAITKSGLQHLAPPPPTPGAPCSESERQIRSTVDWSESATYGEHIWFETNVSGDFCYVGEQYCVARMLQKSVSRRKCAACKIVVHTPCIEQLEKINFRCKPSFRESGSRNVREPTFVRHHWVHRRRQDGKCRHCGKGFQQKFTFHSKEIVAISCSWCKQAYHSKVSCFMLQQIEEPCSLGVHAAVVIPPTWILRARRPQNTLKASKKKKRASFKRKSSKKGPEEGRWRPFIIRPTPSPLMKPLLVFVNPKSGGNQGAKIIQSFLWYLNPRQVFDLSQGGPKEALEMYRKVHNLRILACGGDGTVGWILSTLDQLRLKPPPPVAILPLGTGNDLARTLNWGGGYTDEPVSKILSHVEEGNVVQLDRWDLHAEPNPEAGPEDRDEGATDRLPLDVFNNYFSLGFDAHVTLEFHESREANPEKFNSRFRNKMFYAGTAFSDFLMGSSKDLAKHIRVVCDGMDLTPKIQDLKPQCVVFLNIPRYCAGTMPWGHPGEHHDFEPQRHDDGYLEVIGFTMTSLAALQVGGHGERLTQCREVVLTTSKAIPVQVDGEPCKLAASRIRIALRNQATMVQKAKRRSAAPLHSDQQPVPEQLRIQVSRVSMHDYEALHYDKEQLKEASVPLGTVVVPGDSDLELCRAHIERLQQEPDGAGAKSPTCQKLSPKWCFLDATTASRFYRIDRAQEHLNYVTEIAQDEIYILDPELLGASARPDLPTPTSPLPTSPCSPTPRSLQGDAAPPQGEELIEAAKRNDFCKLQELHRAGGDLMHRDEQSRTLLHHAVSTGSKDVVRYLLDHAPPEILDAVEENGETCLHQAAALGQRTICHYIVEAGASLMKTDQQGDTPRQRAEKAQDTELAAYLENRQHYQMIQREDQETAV

For `Cn1c(=O)c(C#N)c(N(C)[C@H]2CC[C@H](N(CC3CCOC3)c3ccc(F)cc3)CC2)c2nc(C#N)ccc21` (relative stereo) [Example 56, trans-8-((4-((4-fluorophenyl)((tetrahydrofuran-3-yl)methyl)amino)cyclohexyl)(methyl)amino)-5-methyl-6-oxo-5,6-dihydro-1,5-naphthyridine-2,7-dicarbonitrile], the IC50 on DGKζ was no less than 1000 nM; at DGKα it was 10 to 100 nM.

With `Cn1c(=O)c(C#N)c(N(C)[C@H]2CC[C@@H](N(CC3CC3)c3ccc4c(c3)C(=O)NC4)CC2)c2nc(C#N)ccc21` [Example 202, cis-8-((-4-((cyclopropylmethyl)(3-oxoisoindolin-5-yl)amino)cyclohexyl)(methyl)amino)-5-methyl-6-oxo-5,6-dihydro-1,5-naphthyridine-2,7-dicarbonitrile], the IC50 at DGKζ and at DGKα was no less than 1000 nM in each case.

With `Cn1c(=O)c(C#N)c(N(C)[C@H]2CC[C@H](N(CC3CCC3)c3ccc4c(c3)OCCO4)CC2)c2nc(C#N)ccc21` [Example 171, trans-8-((4-((cyclobutylmethyl)(2,3-dihydrobenzo[b] [1,4]dioxin-6-yl)amino)cyclohexyl)(methyl)amino)-5-methyl-6-oxo-5,6-dihydro-1,5-naphthyridine-2,7-dicarbonitrile], the half-inhibitory concentration (IC50) on DGKζ and on DGKα was 100 to 1000 nM in each case.

For `Cc1ccc(N(CC2CCC2)[C@H]2CC[C@H](N(C)c3c(C#N)c(=O)n(C)c4ccc(C#N)nc34)CC2)cc1` [Example 129, trans-8-((-4-((cyclobutylmethyl)(p-tolyl)amino)cyclohexyl)(methyl)amino)-5-methyl-6-oxo-5,6-dihydro-1,5-naphthyridine-2,7-dicarbonitrile], the concentration for half-maximal inhibition (IC50) at DGKζ and at DGKα was 100 to 1000 nM each time.

In the case of `Cc1cc(N(CC2CCOC2)[C@H]2CC[C@@H](N(C)c3cc(=O)n(C)c4ccc(C#N)nc34)CC2)ccc1F` (stereo partly drawn) [Example 157, cis-8-((-4-((4-fluoro-3-methylphenyl) ((tetrahydrofuran-3-yl)methyl)amino)cyclohexyl) (methyl)amino)-5-methyl-6-oxo-5,6-dihydro-1,5-naphthyridine-2-carbonitrile], the IC50 lay in the range of 100 to 1000 nM on DGKζ and 10 to 100 nM on DGKα.

Turning to `Cn1c(=O)c(C#N)c(N(C)[C@H]2CC[C@@H](N(CC3CCOCC3)c3ccc(F)cc3)CC2)c2nc(C#N)ccc21` [Example 53, cis-8-((-4-((4-fluorophenyl)((tetrahydro-2H-pyran-4-yl)methyl)amino)cyclohexyl)(methyl)amino)-5-methyl-6-oxo-5,6-dihydro-1,5-naphthyridine-2,7-dicarbonitrile], the IC50 fell in the range of 100 to 1000 nM at DGKζ and 10 to 100 nM on DGKα.

`Cn1c(=O)c(C#N)c(N(C)[C@H]2CC[C@H](N(CC3CCCOC3)c3ccc(F)cc3)CC2)c2nc(C#N)ccc21` (relative stereo) [Example 58, trans-8-((4-((4-fluorophenyl)((tetrahydro-2H-pyran-3-yl)methyl)amino)cyclohexyl)(methyl)amino)-5-methyl-6-oxo-5,6-dihydro-1,5-naphthyridine-2,7-dicarbonitrile]: the IC50 at DGKζ is no less than 1000 nM; on DGKα, 100 to 1000 nM.

With `Cn1c(=O)c(C#N)c(N(C)[C@H]2CC[C@@H](N(c3ccc(F)cc3)C3CCC3)CC2)c2nc(C#N)ccc21` [Example 16], the IC50 on DGKζ was 100 to 1000 nM; on DGKα, less than 10 nM.

As to `Cc1cc(F)ccc1N(CC1CCOC1)[C@H]1CC[C@@H](N(C)c2cc(=O)n(C)c3ccc(C#N)nc23)CC1` (stereo partly drawn) [Example 164, cis-8-((-4-((4-fluoro-2-methylphenyl) ((tetrahydrofuran-3-yl)methyl)amino)cyclohexyl) (methyl)amino)-5-methyl-6-oxo-5,6-dihydro-1,5-naphthyridine-2-carbonitrile], the IC50 at DGKζ and on DGKα was 100 to 1000 nM in each case.

For `Cn1c(=O)cc(N(C)[C@H]2CC[C@H](N(c3ccccc3)C3CC3)CC2)c2nc(C#N)ccc21` [Example 3T, trans-8-((4-(cyclopropyl(phenyl)amino)cyclohexyl)(methyl)amino)-5-methyl-6-oxo-5,6-dihydro-1,5-naphthyridine-2-carbonitrile], the IC50 at DGKζ and on DGKα was 100 to 1000 nM each time.

Turning to `Cc1cc(F)ccc1N(CC1CN(C)CCO1)[C@H]1CC[C@H](N(C)c2c(C#N)c(=O)n(C)c3ccc(C#N)nc23)CC1` (stereo partly drawn) [Example 186, trans-8-((-4-((4-fluoro-2-methylphenyl)((4-methylmorpholinium-2-yl)methyl)amino)cyclohexyl) (methyl)amino)-5-methyl-6-oxo-5,6-dihydro-1,5-naphthyridine-2,7-dicarbonitrile trifluoroacetate], the figures for the IC50 on DGKζ and on DGKα were no less than 1000 nM and 100 to 1000 nM, respectively.

`Cn1c(=O)c(C#N)c(N(C)[C@H]2CC[C@H](N(CC3CC3)c3ccc(F)cc3)CC2)c2nc(C#N)ccc21` [Example 54, trans-8-((4-((cyclopropylmethyl)(4-fluorophenyl)amino)cyclohexyl)(methyl)amino)-5-methyl-6-oxo-5,6-dihydro-1,5-naphthyridine-2,7-dicarbonitrile]: the IC50 at DGKζ and on DGKα was 100 to 1000 nM throughout.

For `Cn1c(=O)c(C#N)c(N(C)[C@H]2CC[C@@H](N(c3ccc(F)cc3F)C3CC3)CC2)c2nc(Cl)ccc21` [Example 5, cis-6-chloro-4-((-4-(cyclopropyl(2,4-difluorophenyl)amino)cyclohexyl)(methyl)amino)-1-methyl-2-oxo-1,2-dihydro-1,5-naphthyridine-3-carbonitrile], the IC50 was no less than 1000 nM on DGKζ and 100 to 1000 nM at DGKα.

Turning to `Cc1ccc(F)cc1N(CC1CC1)[C@H]1CC[C@H](N(C)c2c(C#N)c(=O)n(C)c3ccc(Cl)nc23)CC1` [Example 118, trans-6-chloro-4-((4-((cyclopropylmethyl)(5-fluoro-2-methylphenyl)amino)cyclohexyl)(methyl)amino)-1-methyl-2-oxo-1,2-dihydro-1,5-naphthyridine-3-carbonitrile], the half-inhibitory concentration (IC50) was 100 to 1000 nM at DGKζ and no less than 1000 nM on DGKα.

For the molecule `O=C(N[C@H]1CC[C@@H](N(CC2CC2)c2ccccc2)CC1)c1cnn2cccnc12` [Example 4G, cis-N-(4-((Cyclopropylmethyl)(phenyl)amino)cyclohexyl) pyrazolo[1,5-a]pyrimidine-3-carboxamide], the half-maximal inhibitory concentration (IC50) at DGKζ and on DGKα was no less than 1000 nM throughout.

For the molecule `COc1cc(F)ccc1N(CC1CC1)[C@H]1CC[C@@H](N(C)c2c(C#N)c(=O)n(C)c3ccc(C#N)nc23)CC1` [Example 31, cis-8-((4-((cyclopropylmethyl)(4-fluoro-2-methoxyphenyl)amino)cyclohexyl)(methyl)amino)-5-methyl-6-oxo-5,6-dihydro-1,5-naphthyridine-2,7-dicarbonitrile], the IC50 on DGKζ and on DGKα was 100 to 1000 nM in each case.

As to `Cn1c(=O)c(C#N)c(N(C)[C@H]2CC[C@@H](N(CC3CCC3)c3cccc4c3OCO4)CC2)c2nc(Cl)ccc21` [Example 110, cis-4-((-4-(benzo[d][1,3]dioxol-4-yl(cyclobutylmethyl)amino)cyclohexyl)(methyl)amino)-6-chloro-1-methyl-2-oxo-1,2-dihydro-1,5-naphthyridine-3-carbonitrile], the figures for the 50% inhibitory concentration (IC50) at DGKζ and at DGKα were 100 to 1000 nM and 10 to 100 nM, respectively.

For the molecule `Cn1c(=O)cc(N[C@H]2CC[C@H](N(CC3CC3)c3ccc(F)cc3)CC2)c2nc(C#N)ccc21` [Example 3R, trans-8-((4-((Cyclopropylmethyl)(4-fluorophenyl)amino)cyclohexyl)amino)-5-methyl-6-oxo-5,6-dihydro-1,5-naphthyridine-2-carbonitrile], the IC50 on DGKζ was no less than 1000 nM; at DGKα, 10 to 100 nM.

With `COc1cc(N(CC2CC2)[C@H]2CC[C@@H](N(C)c3c(C#N)c(=O)n(C)c4ccc(Cl)nc34)CC2)cc(F)c1F` [Example 98], the half-maximal inhibitory concentration (IC50) on DGKζ and on DGKα was 100 to 1000 nM each time.

As for `Cn1c(=O)c(F)c(N(C)[C@H]2CC[C@@H](N(CC3COCCO3)c3ccc(F)cc3)CC2)c2nc(C#N)ccc21` (stereo partly drawn) [Example 203, cis-8-((-4-(((1,4-dioxan-2-yl)methyl)(4-fluorophenyl)amino)cyclohexyl)(methyl)amino)-7-fluoro-5-methyl-6-oxo-5,6-dihydro-1,5-naphthyridine-2-carbonitrile], the figures for the concentration for half-maximal inhibition (IC50) at DGKζ and on DGKα were 100 to 1000 nM and less than 10 nM, respectively.

Consider `Cc1cc(F)ccc1N(C[C@@H]1CCOC1)[C@H]1CC[C@H](N(C)c2c(C#N)c(=O)n(C)c3ccc(C#N)nc23)CC1` [Example 166, trans-8-((-4-((4-fluoro-2-methylphenyl)(((S)-tetrahydrofuran-3-yl)methyl)amino)cyclohexyl) (methyl)amino)-5-methyl-6-oxo-5,6-dihydro-1,5-naphthyridine-2,7-dicarbonitrile], for which the IC50 is 100 to 1000 nM at DGKζ and no less than 1000 nM on DGKα.
